Experimental data from ChEMBL document CHEMBL1123951, “Triazolines. 14. 1,2,3-Triazolines and triazoles, a new class of anticonvulsants. Drug design and structure-activity relationships” (J Med Chem, 1988).

Experiments:
[1] = tested on: Mus musculus; assay: Anticonvulsant activity in mice, measured by subcutaneous pentylenetetrazole seizure (scMet) test.; format: functional; conditions: sc
[2] = species on record: Mus musculus; assay: Anticonvulsant activity in mice, measured by maximal electroshock seizure (MES) test.; format: functional
[3] = species on record: Mus musculus; assay: Neurological deficit in mouse measured by rotarod test; format: functional
[4] = Protective index (PI),anticonvulsant activity, ratio of TD50/ED50 value in scMet test; format: ADME, organism-based; conditions: mouse, in vivo
[5] = Protective index (PI), anticonvulsant activity, ratio of TD50/ED50 value in maximal electroconvulsive shock seizure (MES) test; format: ADME, organism-based; conditions: mouse, in vivo
[6] = Protective index (Pi) was measured as the ratio of TD50/ED50 value in MES test; format: ADME

SMILES	ED50 [1]	ED50 [2]	TD50 [3]	selectivity ratio [4]	selectivity ratio [5]	selectivity ratio [6]
CCCC(CCC)C(=O)O [VALPROIC ACID]	149 mg/kg	272 mg/kg				
CCC1(C)CC(=O)NC1=O (configuration not stated) [ETHOSUXIMIDE]	130 mg/kg		441 mg/kg			
Brc1ccc(-n2nncc2-c2cccnc2)cc1	40.6 mg/kg	87.2 mg/kg	496 mg/kg	12.2	5.7	
c1ccc(-n2nncc2-c2ccccn2)cc1	25.6 mg/kg	41.1 mg/kg	87.9 mg/kg	3.4	2.1	
COc1ccc(-n2nncc2-c2ccncc2)cc1		311 mg/kg	545 mg/kg			1.75
CCC1(c2ccccc2)C(=O)NC(=O)NC1=O [PHENOBARBITAL]			69 mg/kg			
Clc1cccc(-n2nncc2-c2ccncc2)c1	29.2 mg/kg	38 mg/kg	68.7 mg/kg	2.4	1.8	
Clc1ccc(N2N=NCC2c2ccncc2)cc1 (configuration not stated)		257 mg/kg	1130 mg/kg	26	4.4	
Fc1ccc(-n2nncc2-c2ccncc2)cc1	119 mg/kg	91.6 mg/kg	181 mg/kg	1.5	2	
Fc1ccc(-n2nncc2-c2cccnc2)cc1	47.9 mg/kg	74.6 mg/kg	168 mg/kg	3.5	2.5	
c1ccc(-n2nncc2-c2ccncc2)cc1	73.7 mg/kg	78.8 mg/kg	157 mg/kg	2.1	2	
Fc1ccc(-n2nncc2-c2ccccn2)cc1F	123 mg/kg	62.5 mg/kg	123 mg/kg	1.6	3.1	
Fc1ccc(N2N=NCC2c2ccncc2)cc1 (configuration not stated)	203 mg/kg	239 mg/kg	586 mg/kg	2.9	2.5	
Brc1ccc(-n2nncc2-c2ccccn2)cc1	88.6 mg/kg	68 mg/kg	265 mg/kg	3	3.9	
c1ccc(-n2nncc2-c2cccnc2)cc1	39.7 mg/kg	76.4 mg/kg	133 mg/kg	3.3	1.7	
FC(F)(F)c1cccc(-n2nncc2-c2ccncc2)c1	44.7 mg/kg	68.2 mg/kg	68 mg/kg	1.52	0.99	
FC(F)(F)c1ccc(N2N=NCC2c2ccncc2)cc1 (configuration not stated)	421 mg/kg	689 mg/kg	> 2000 mg/kg	> 4.8	> 2.9	
c1ccc(N2N=NCC2c2ccncc2)cc1 (configuration not stated)	107 mg/kg	165 mg/kg	590 mg/kg	5.6	3.6	
Clc1ccc(-n2nncc2-c2ccccc2)cc1	95.2 mg/kg	233 mg/kg	466 mg/kg	4.9	2	
FC(F)(F)c1ccc(-n2nncc2-c2cccnc2)cc1	90.5 mg/kg	92.3 mg/kg	379 mg/kg	4.2	4.1	
Clc1ccc(-n2nncc2-c2cccnc2)cc1	26.9 mg/kg	65.8 mg/kg	245 mg/kg	9.1	3.7	
FC(F)(F)c1cccc(N2N=NCC2c2ccncc2)c1 (configuration not stated)	51 mg/kg	52.1 mg/kg	137 mg/kg	2.69	2.63	
Clc1ccc(-n2nncc2-c2ccccn2)cc1	50.4 mg/kg	95.2 mg/kg	234 mg/kg	4.6	2.5	
